Data taken from US9848602B2, “Use of prothioconazole to induce host defence responses” (priority 2013, dated 2017).

What was measured:
[1] = tested on: Arabidopsis thaliana plants (gene expression); assay: Induction of salicylic acid and pathogen response pathways, Affymetrix ATH1 gene expression analysis; format: in vivo; conditions: 500 g/ha spray; for total number of differentially expressed genes: p≦0.05, vs control
Protocol: Arabidopsis thaliana plants were grown on soil in climate controlled growth chambers for 33 days under defined conditions. For treatment Prothioconazole was formulated to result in a final concentration corresponding to 500 g/ha in a spray application. The plants were sprayed in biological replicates. A control group of similar grown plants was equally treated with a blank formulation. Aerial tissues of the treated plants were harvested 3 h and 6 h after treatment, frozen in liquid nitrogen and stored at −80° C. for further processing. Each biological replicate (3 per treatment and time point) consisted of a pool of 10 plants.
Total RNA was prepared from each sample using the RNeasy Midi kit from Qiagen #75142 according to the manufacturer's recommendations. The RNA was then transcribed into cDNA using Superscript II Reverse Transcriptase (Invitrogen). The biotin-labeled cRNA probes for hybridization were generated from the cDNA using the BioArray HighYield® RNA transcript labeling kit (T7) (Enzo Life Sceinces # ENZ42655-40) according the manufacturer's recommendations. The labelled cRNA probes were subsequently hybridized onto Affymetrix GeneChip Arabidopsis ATH1 Genome Arrays (cat.#900385).
The samples were analyzed using the Affymetrix GeneChip System. The resulting data were processed and analyzed using Genedata Refiner Array, Genedata Analyst, RobiNA (Lohse et al. 2012, Nucleic Acids Res) and MapMan (Usadel et al. 2009, Plant Cell Environment) software packages.

[2] = tested on: PR1 (pathogenesis-related protein 1) gene (AT2G14610) promoter; assay: Induction of defense gene expression, GFP reporter behind the PR1 promoter; format: in vivo, Arabidopsis thaliana; conditions: 300 ppm, 3 days after spraying, mock (background) set as 1.00
Protocol: Arabidopsis thaliana reporter plants containing the coding sequence of a green fluorescent protein (GFP) linked to the salicylate responsive promoter sequence of the PR1 (pathogenesis-related protein 1) gene (AT2G14610) were grown for five days and then sprayed with compounds. On the 3rd day after spraying, plant fluorescence was assessed with a MacroFluo instrument from Leica Microsystems (Wetzlar, Germany). Fluorescences were quantified with the MetaMorph Microscopy Automation & Image Analysis Software (Molecular Devices, Sunnyvale, Calif., United States).

[3] = 3 h after treatment, >2-fold change, p≦0.05
[4] = 6 h after treatment, >2-fold change, p≦0.05

Compound | number of down-regulated genes [1, 3] | number of up-regulated genes [1, 3] | total number of differentially expressed genes ([1]; 3 h after treatment, >2-fold change) | induction of At1g57630 [Toll-Interleukin-Resistance domain-containing protein] ([1]; 6 h after treatment) [fold] | induction of At1g66090 [TIR-NBS class of disease resistance protein] ([1]; 6 h after treatment) [fold] | induction of At3g59930 [Defensin-like protein 206] ([1]; 6 h after treatment) [fold] | induction of At4g36010 [pathogenesis-related thaumatin family protein] ([1]; 6 h after treatment) [fold] | number of downregulated genes [1, 4] | number of up-regulated genes [1, 4] | total number of differentially expressed genes ([1]; 6 h after treatment, >2-fold change) | induction of At1g05680 (UDP-glucose: salicylic acid glucosyltransferase) ([1]; after 3 h) [fold] | induction of At2g43820 (UDP-glucose: salicylic acid glucosyltransferase) ([1]; after 3 h) [fold] | induction of At1g05680 (UDP-glucose: salicylic acid glucosyltransferase) ([1]; after 6 h) [fold] | induction of At2g43820 (UDP-glucose: salicylic acid glucosyltransferase) ([1]; after 6 h) [fold] | Relative fluorescence of GFP [2]
OC(Cc1ccccc1Cl)(Cn1[nH]cnc1=S)C1(Cl)CC1 (centres unmarked) [Prothioconazole, 2-[2-(1-chlorocyclopropyl)-3-(2-chlorophenyl)-2-hydroxypropyl]-1,2-dihydro-3H-1,2,4-triazole-3-thione] | 142 | 238 | 380 | 3.4 | 2.4 | 3 | 3.8 | 148 | 299 | 447 | 3 | 2.5 | 5.5 | 2.5 | 2.04
O=C(O)c1ccccc1O [Salicylic acid, salicylic acid] | – | – | – | – | – | – | – | – | – | – | – | – | – | – | 1.96
CC(C)(C)C(O)(CCc1ccc(Cl)cc1)Cn1cncn1 (centres unmarked) [Tebuconazole] | – | – | – | – | – | – | – | – | – | – | – | – | – | – | 0.73
